Experiment: i.v. administration of 0.5 mg MENT (reference for bioavailability)
Assay type: in vivo
Settings: after i.v. admin. of 0.5 mg MENT

C[C@@H]1CC2=CC(=O)CC[C@@H]2[C@H]2CC[C@]3(C)[C@@H](O)CC[C@H]3[C@@H]21 [MENT, 7α-methyl-19-nortestosterone]
AUC(0-tlast) geomean dose-normalized: 4.98 ng·h/mL

From patent US9763960B2, “Wafer comprising steroid hormones” (LTS Lohmann Theraple-Systeme AG, priority 2005, dated 2017)
